This note sets out measurements from PMC7459852, “Identification of 6-(piperazin-1-yl)-1,3,5-triazine as a chemical scaffold with broad anti-schistosomal activities” (Wellcome Open Research, 2020).

Usually EC50 stands for the midpoint of the concentration-response curve. The term inhibition denotes the drop in the measured response relative to a control, in per cent. A low value points to a weak effect. The term CC50 denotes the concentration at which the toxic effect on the cells reaches its halfway point. Low readings indicate greater toxicity to the cells, high ones lower toxicity to the cells.

Where two headings read alike, the source gives them in different places.

For one data set, the system named is S. mansoni schistosomula. Kind of data set: Schistosomula screens (Roboworm, phenotype and motility). Format: cell-based, Schistosoma mansoni. The conditions noted are these: 72 h. The method, then: Anthelmintic activity on the schistosomula stage of S. mansoni was evaluated using Roboworm, an integrated high-throughput, high content image analysis platform originally developed by Paveley et al. and subsequently used by our research group as previously described, [28], [50], [51]. Alternatively, the computer application Worminator can be used to assess motion of microscopic parasites such as the schistosomula stage of S. mansoni. Compounds (as single concentration or two-fold titrations) were prepared for screening in a 384-well plate (PerkinElmer, MA, USA), where solutions (1.6 mM, 0.5 μl) were wet stamped using the Biomek NX ^P liquid handling platform into Basch medium (20 μl). Negative (0.625% DMSO) and positive (Auranofin - AUR - at 10 µM final concentration in 0.625% DMSO) control wells were similarly prepared. Mechanically transformed schistosomula (about 120 parasites in 60 μl of Basch medium) were distributed into each treated well using a WellMate (Thermo Scientific, Loughborough, UK). Schistosomula/compound co-cultures were then incubated at 37°C for 72 h in a humidified atmosphere containing 5% CO 2. At 72 h, parasite/compound co-cultures were resuspended and tissue culture plates were imaged under the same conditions (37°C for 72 h in a humidified atmosphere containing 5% CO 2) using an ImageXpressXL high content imager (Molecular Devices, UK) with subsequent images processed for phenotype and motility as previously reported. Plate analysis returned a phenotype and motility score for each well and any scores below -0.15 and -0.35 (defined threshold anti-schistosomula values for phenotype and motility scores, respectively) defined a condition displaying anti-schistosomula activity. Compound screens were assessed based on the Z´ values (derived from the means and standard deviations of positive and negative controls) and those equal to or above 0.3 for both phenotype and motility were considered successful.
Phenotype and motility scores of each titration were used to generate dose response curves in GraphPad Prism 7.02 based on the corrected average score of the three replicates for each data point.

The subject of another data set is S. mansoni miracidia. The data set is described as follows: Miracidia to sporocyst transformation screens. It is filed as cell-based, Schistosoma mansoni. The conditions noted are these: 48 h. The method, then: Following hatching of S. mansoni eggs, miracidia were incubated on ice for 15 min and then centrifuged at 700 x g for 5 min at 4°C. The miracidia pellet was then re-suspended in 5 ml of Chernin's balanced salt solution (CBSS), subjected to pelleting and two subsequent washes (all at 700 x g for 5 min at 4°C). Afterwards, the supernatant was carefully removed with a serological pipette and the miracidia-enriched pellet was resuspended with CBSS supplemented with 1 mg/ml each of glucose and trehalose and 500 µl of Penicillin-Streptomycin (containing 10,000 units penicillin and 10 mg streptomycin/ml, P4333, Sigma-Aldrich). In preparation for the screens, CBSS (250 µl) was aliquoted to each well of a 24-well plate followed by addition of each compound in DMSO (1 mM concentration in 1% DMSO) or DMSO alone (1%, negative control). Next, approximately 20-25 miracidia (in 250 µl of CBSS) were aliquoted to each well. […] Both preliminary and secondary screens were performed in duplicate on two separate occasions (two independent biological replicates). Miracidia were incubated for 48 h at 26°C before being evaluated using an Olympus inverted light microscope for morphological and behavioural changes differing from the control wells. Dead, partially transformed and fully transformed miracidia were enumerated in the DMSO control and the assay plates as previously described, [23], [59]. […] Absence of ciliated plates attached to the surface of the parasite and formation of sporocyst tegument defined the so-called “fully transformed” parasites.

Data set [1] is described as follows: MTT cytotoxicity assay on HepG2 cells. Format: cell-based, Human. The conditions noted are these: human, HepG2 cells, MTT, 24 h; three dose response titrations (200 - 1 µM). The method, then: Compound cytotoxicity on Human Hepatocyte Carcinoma (HepG2) cells (85011430, Sigma Aldrich) was elucidated by the MTT (3-(4,5-dimethylthiazol-2-yl)-2,5-diphenyltetrazolium bromide) tetrazolium reduction assay as previously described, [28], [50]. Briefly, HepG2 cells were seeded at a density of 20,000 per well in 96-well black, clear bottom falcon plate in modified BME medium (50 μl; containing 1% antibiotic/mycotic (Sigma-Aldrich, Gillingham, UK), 1% 200 mM L-glutammine (Gibco, Paisley, UK), 1% MEM non-essential amino acid solution (Gibco, Paisley, UK), and 10% fetal bovine serum (Gibco, Paisley, UK)). HepG2 plates seeded for cytotoxicity screens were treated with compounds 24 h post-seeding. Each compound was tested at 200, 100, 75, 50, 20, 10 and 1 µM; each concentration was assayed in triplicate. Blank wells (no cells), as well as positive (1% v/v Triton X-100, X100, Sigma-Aldrich) and negative (1.25% v/v DMSO or media only) controls, were included in each plate. After addition of compounds, each plate was then incubated for a further 20 h before application of MTT reagent for assessment of compound cytotoxicity (4 h incubation with MTT for a total 24 h cell-drug incubation). The absorbance reading at 570 nm was measured with a POLARstar Omega (BMG Labtech, UK) microtiter plate reader. Dose response curves were generated in GraphPad Prism 7.02 based on the corrected average absorbance of the three replicates for each concentration point.
On the technique in general: Tetrazolium assays rely on reduction of a dye to a coloured formazan, in cell work by metabolically active cells.

The subject of a further data set is S. mansoni adult worms. The data set is described as follows: Adult worm screens (WormassayGP2 motility, egg count). Format: cell-based. Particulars: Schistosoma mansoni, two dose response titrations (100 – 3.13 µM).

On to `c1ccc(Nc2nc(N3CCCC3)nc(N3CCNCC3)n2)cc1` [Compound 7], for which the results for the “anti-schistosomula activity (hit on phenotype and motility)” value in the data set with S. mansoni schistosomula (10 µM) and with S. mansoni schistosomula (50 µM) were “remaining active” and “showed anti-schistosomal activity”, respectively. Moreover, the EC50 with S. mansoni schistosomula (Schistosoma mansoni, average of phenotype and motility metrics, read-out: Schistosomula EC50 Average) came to 5.54 µM; with S. mansoni schistosomula (Schistosoma mansoni, dose response titrations (10 - 0.625 µM), read-out: Schistosomula EC50 Motility), 5.03 µM; in the data set on S. mansoni schistosomula (Schistosoma mansoni, dose response titrations (10 - 0.625 µM), read-out: Schistosomula EC50 Phenotype), 5.65 µM; with S. mansoni schistosomula (average of phenotype and motility metrics, read-out: Schistosomula EC50 Average), 5.34 µM; in the data set with S. mansoni adult worms it was 11 µM. Further, the schistosomula phenotype induced entry with S. mansoni schistosomula (both 50 and 10 µM) is given as “swollen with some individuals additionally displaying posterior end compression”. For the same compound, the “inhibition of miracidia transformation” value in the data set on S. mansoni miracidia (5, 2 and 0.5 µM) is listed as 20–25%. For the same compound, in the data set on S. mansoni miracidia (50 and 25 µM), the effect on miracidia result is on record as “completely lethal”. This compound gave an inhibition at 10 µM in the data set on S. mansoni miracidia (Schistosoma mansoni, 10 µM) of 45%. This compound gave a CC50 at 24 h in data set [1] of 13.7 µM.
